Tested on: HepG2
Assay: Hepatoprotective activity in human HepG2 cells assessed as inhibition of H2O2- induced oxidative damage after 3 hrs by leucocrstal violet dye treated 1 hr before H2O2 challenge
Assay type: functional, cell-based

Compared with C=C1CC=C[C@]2(C)C[C@]3(O)OC(=O)C(C)C3=C[C@@H]12 (some centres undefined) [HYDROXYLINDESTENOLIDE], CC1=CC[C@@H](O)[C@]2(C)CC3(O)OC(=O)C(C)=C3[C@H](O)[C@@H]12 (some centres undefined) [LINDERAGALACTONE E] is 1.6-fold higher in EC50: 42.4 µM for the first, 67.5 µM for the second. The first is the more potent here.

First: C/C1=C\CCC2=C[C@@H](OC2=O)c2c(C)coc2C1 [LINDERALACTONE]
Second: C/C1=C\CC[C@]23O[C@H]2[C@@H](OC3=O)c2c(C)coc2C1 [LINDERANE]
The EC50 of the first is 1.7-fold lower: 98 µM for the first, 167 µM for the second. The first is the more potent here.

— ChEMBL document CHEMBL1153810, “Sesquiterpene lactones from the root tubers of Lindera aggregata” (J Nat Prod, 2009)
